Measured values: PubChem BioAssay (NCI)
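The compound was tested at five concentrations on cells cultured in 96-well plates, with a 48-hour exposure period. Abbreviation: GI50, concentration required for 50% inhibition of growth. TGI: concentration producing complete growth inhibition.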

Tests used:
Experiment in all cases: NCI tumour cell line growth inhibition, 48 h
HCT-116 colon = test system: HCT-116 colon
HL-60(TB) leukemia = test system: HL-60(TB) leukemia
M14 melanoma = test system: M14 melanoma
MDA-MB-231 breast = test system: MDA-MB-231 breast
MDA-MB-435 = test system: MDA-MB-435
OVCAR-4 ovarian = test system: OVCAR-4 ovarian
SK-MEL-5 melanoma = test system: SK-MEL-5 melanoma
U251 CNS = test system: U251 CNS
UACC-62 melanoma = test system: UACC-62 melanoma
UO-31 renal = test system: UO-31 renal

Row | Structure (SMILES) | GI50 (HCT-116 colon) | TGI (HCT-116 colon) | GI50 (HL-60(TB) leukemia) | TGI (HL-60(TB) leukemia) | GI50 (M14 melanoma) | TGI (M14 melanoma) | GI50 (MDA-MB-231 breast) | TGI (MDA-MB-231 breast) | GI50 (MDA-MB-435) | TGI (MDA-MB-435) | GI50 (OVCAR-4 ovarian) | TGI (OVCAR-4 ovarian) | GI50 (SK-MEL-5 melanoma) | TGI (SK-MEL-5 melanoma) | GI50 (U251 CNS) | TGI (U251 CNS) | GI50 (UACC-62 melanoma) | TGI (UACC-62 melanoma) | GI50 (UO-31 renal) | TGI (UO-31 renal)
1 | CC1=C(CCCNS(C)(=O)=O)C2=C(C)C3(CC3)[C@@](C)(O)C(=O)C2=C1 | 0.863 µM | > 100 µM | 1.98 µM | > 24 µM | 0.807 µM | 2.75 µM | 1.63 µM | 6.5 µM | 1.99 µM | 5.41 µM | 0.9 µM | 5.32 µM | 0.492 µM | 1.98 µM | 2.32 µM | > 100 µM | 1.47 µM | 3.45 µM | 0.5 µM | 2.3 µM
2 | O=C1/C(=C/c2ccc(Cl)cc2Cl)N=C(c2ccccc2)N1Cc1ccco1 | 20.7 µM | 47.1 µM | 18.3 µM | 52.3 µM | 29.1 µM | > 100 µM | 17.6 µM | 49.3 µM | 43.6 µM | > 100 µM | 21.2 µM | 50 µM | 15.8 µM | 80.9 µM | 20.5 µM | 40.5 µM | 18.1 µM | 41.6 µM | 23.9 µM | > 100 µM
3 | COc1cnc2cc(C(=O)O)c3c([N+](=O)[O-])cccc3c2c1 | – | > 100 µM | – | > 100 µM | – | > 100 µM | – | > 100 µM | – | > 100 µM | – | > 100 µM | – | > 100 µM | – | > 100 µM | – | > 100 µM | – | > 100 µM
4 | Cc1ccc(S(=O)(=O)N(CCOc2ccc(/C(N)=N/Cl)cc2)CCOc2ccc(/C(N)=N\Cl)cc2)cc1 | 12.7 µM | > 100 µM | 7.65 µM | 48.6 µM | 35.1 µM | > 100 µM | 44.4 µM | > 100 µM | 21.8 µM | > 100 µM | 16.7 µM | > 100 µM | 10.3 µM | 26.8 µM | 3.91 µM | 16.8 µM | 19 µM | 64.5 µM | > 100 µM | > 100 µM
5 | O=C(CN1CCOCC1)Nc1ccc(Cn2nnc3c2C(=O)c2nnn(Cc4ccc(NC(=O)CN5CCOCC5)cc4)c2C3=O)cc1 | 0.316 µM | 1.16 µM | 0.204 µM | 0.61 µM | 0.596 µM | 1.88 µM | 0.26 µM | > 100 µM | 0.177 µM | 0.329 µM | 0.303 µM | 1.52 µM | 0.249 µM | 0.877 µM | 0.305 µM | 0.942 µM | 0.463 µM | 1.83 µM | 26 µM | > 100 µM
6 | CN(C)CCNc1cc(-c2ccccc2)nc2ccccc12 | 3.75 µM | 18.8 µM | 4.58 µM | 22.3 µM | 10.3 µM | 24.8 µM | 7.45 µM | 32.5 µM | 6.12 µM | 20.6 µM | 7.45 µM | 37.4 µM | 10.1 µM | 22.4 µM | 3.48 µM | 11.2 µM | 13.7 µM | 30 µM | 4.01 µM | 26.9 µM
7 | COc1ccc2c(c1)c(-c1nc(-c3cn(C)c4ncccc34)cs1)cn2CCCN1CCCCC1 | 1.68 µM | 3.05 µM | 1.81 µM | 3.62 µM | 1.65 µM | 3.11 µM | 1.78 µM | 3.37 µM | 1.63 µM | 3.03 µM | 1.87 µM | 4.64 µM | 1.79 µM | 3.25 µM | 1.81 µM | 3.23 µM | 1.76 µM | 3.2 µM | 1.51 µM | 2.87 µM
8 | CC1CCC2(C(=O)O)CCC3(C)C(=CCC4C5(C)CC(O)C(O)C(C)(CO)C5C(O)CC43C)C2C1C (stereo not given) | – | > 24.3 µM | – | 47.1 µM | – | > 100 µM | – | 72 µM | – | > 100 µM | – | > 100 µM | – | 87.2 µM | – | 45.5 µM | – | 47.5 µM | – | > 100 µM
9 | N#Cc1ccc(C#Cc2ccccc2C#CCCCCO)cc1 | 12.7 µM | 25.3 µM | 23.7 µM | 45.6 µM | 17.3 µM | 31.5 µM | 16.7 µM | 31.3 µM | 18.9 µM | 35.6 µM | 26.2 µM | 65.9 µM | 17.5 µM | 31.9 µM | 14.5 µM | 27.5 µM | 15 µM | 28.4 µM | 16.9 µM | 35.3 µM
10 | CC1OC(O[C@H]2C[C@@H](O)[C@]3(CO)[C@H]4[C@H](O)C[C@]5(C)[C@@H](C6=CC(=O)OC6)CC[C@]5(O)[C@@H]4CC[C@]3(O)C2)C(O)C(O)C1O (stereo not given in full) | 19 µM | 33.7 µM | 21 µM | 41.6 µM | 27.7 µM | 87.5 µM | 21 µM | 40.5 µM | 19.5 µM | 38.6 µM | 17.3 µM | 33.1 µM | 17.7 µM | 35.2 µM | 18.8 µM | 33.7 µM | 17.6 µM | 32.4 µM | 24.7 µM | 57.1 µM
11 | Cn1c(N2NC(=O)C(N=Nc3ccc(S(N)(=O)=O)cc3)C2=O)nc(-c2ccco2)c(C#N)c1=O (stereo not given) | 15.4 µM | > 50 µM | 5.04 µM | 18.4 µM | 21.9 µM | > 50 µM | 28.6 µM | > 50 µM | 32.3 µM | > 50 µM | 8 µM | 23.9 µM | 35.3 µM | > 50 µM | 42.3 µM | > 50 µM | 39.4 µM | > 50 µM | > 50 µM | > 50 µM
